Data from patent publication US9441018B2, “Gene from tidal flat metagenome and a novel protein displaying both phospholipase and lipase activities” (KOREA RESEARCH INSTITUTE OF BIOSCIENCE AND BIOTECHNOLOGY, priority 2011, dated 2016).
Several values for one entry are separate records, joined by “and”; a condition that tells them apart may be missing. Identical values can stand only once. Like-named read-outs stand apart in the source and are kept apart here.

How the values were obtained:
[1] = system: phospholipase/lipase MPIaG; format: biochemical, tidal flat metagenome
[2] = system: phospholipase/lipase MPIaG
Description: Particularly, enzyme activity was measured by the following two methods. […] The second method was spectrophotometric assay as standard method of the present invention. […] The increasing rate of para-nitrophenol hydrolyzed from the substrate was continuously measured at OD405. Unless informed otherwise, p-nitrophenyl caprate (C10) was used as a substrate. 1 unit (U) of enzyme was defined as the enzyme amount capable of producing 1 μmol of para-nitrophenol via hydrolysis.

SMILES: O[C@H](CS)[C@H](O)CS (racemic) [DTT, dithiothreitol]
- Enzyme activity relative value (%) ([1]; additive 1 mM): 93%
- Enzyme activity relative value (%) ([1]; additive 5 mM): 107%
- Enzyme activity relative value (%) ([1]; additive 10 mM): 105%

SMILES: OCCS [2-mercaptoethanol]
- Enzyme activity relative value (%) ([1]; additive 1 mM): 105%
- Enzyme activity relative value (%) ([1]; additive 5 mM): 108%
- Enzyme activity relative value (%) ([1]; additive 10 mM): 80%

SMILES: CC(C)O [2-propanol]
- Enzyme activity relative value (%) ([2]; organic solvent 20%): 101%
- Enzyme activity relative value (%) ([2]; organic solvent 30%): 97%
- Enzyme activity relative value (%) ([2]; organic solvent 50%): 96%
- Enzyme activity relative value (%) ([2]; organic solvent 60%): 99%

SMILES: CC(C)=O [Acetone]
- Enzyme activity relative value (%) ([2]; organic solvent 20%): 96%
- Enzyme activity relative value (%) ([2]; organic solvent 30%): 100%
- Enzyme activity relative value (%) ([2]; organic solvent 50%): 96%
- Enzyme activity relative value (%) ([2]; organic solvent 60%): 99%

SMILES: CC#N [Acetonitrile]
- Enzyme activity relative value (%) ([2]; organic solvent 20%): 100%
- Enzyme activity relative value (%) ([2]; organic solvent 30%): 99%
- Enzyme activity relative value (%) ([2]; organic solvent 50%): 98%
- Enzyme activity relative value (%) ([2]; organic solvent 60%): 99%

SMILES: [Ca+2].[Cl-].[Cl-] [CaCl2]
- increase of enzyme activities [1]: approximately 10 times
- Enzyme activity relative value (%) ([1]; additive 1 mM): 466%
- Enzyme activity relative value (%) ([1]; additive 5 mM): 1015%
- Enzyme activity relative value (%) ([1]; additive 10 mM): 994%

SMILES: [Cl-].[Cl-].[Co+2] [CoCl2]
- Enzyme activity relative value (%) [1]: 120% and 177% and 116%

SMILES: [Cl][Cu][Cl] [CuCl2]
- Enzyme activity relative value (%) ([1]; additive 1 mM): 135%
- Enzyme activity relative value (%) ([1]; additive 5 mM): 32%
- Enzyme activity relative value (%) ([1]; additive 10 mM): 11%

SMILES: CN(C)C=O [DMF, dimethylformamide]
- Enzyme activity relative value (%) ([2]; organic solvent 20%): 99%
- Enzyme activity relative value (%) ([2]; organic solvent 30%): 100%
- Enzyme activity relative value (%) ([2]; organic solvent 50%): 93%
- Enzyme activity relative value (%) ([2]; organic solvent 60%): 98%

SMILES: C[S+](C)[O-] [DMSO, dimethyl sulfoxide]
- Enzyme activity relative value (%) ([2]; organic solvent 20%): 98%
- Enzyme activity relative value (%) ([2]; organic solvent 30%): 97%
- Enzyme activity relative value (%) ([2]; organic solvent 50%): 98%
- Enzyme activity relative value (%) ([2]; organic solvent 60%): 81%

SMILES: O=C(O)CN(CCN(CC(=O)O)CC(=O)O)CC(=O)O [EDTA, ethylenediaminetetraacetic acid]
- effect on enzyme activities (in words) [1]: strongly inhibited

SMILES: CCO [Ethanol]
- Enzyme activity relative value (%) ([2]; organic solvent 20%): 100%
- Enzyme activity relative value (%) ([2]; organic solvent 30%): 95%
- Enzyme activity relative value (%) ([2]; organic solvent 50%): 94%
- Enzyme activity relative value (%) ([2]; organic solvent 60%): 98%

SMILES: O=S(=O)([O-])[O-].[Fe+2] [FeSO4]
- Enzyme activity relative value (%) ([1]; additive 1 mM): 137%
- Enzyme activity relative value (%) ([1]; additive 5 mM): 142%
- Enzyme activity relative value (%) ([1]; additive 10 mM): 151%

SMILES: CO [Methanol]
- Enzyme activity relative value (%) ([2]; organic solvent 20%): 100%
- Enzyme activity relative value (%) ([2]; organic solvent 30%): 101%
- Enzyme activity relative value (%) ([2]; organic solvent 50%): 93%
- Enzyme activity relative value (%) ([2]; organic solvent 60%): 98%

SMILES: [Cl-].[Cl-].[Mg+2] [MgCl2]
- Enzyme activity relative value (%) ([1]; additive 1 mM): 105%
- Enzyme activity relative value (%) ([1]; additive 5 mM): 198%
- Enzyme activity relative value (%) ([1]; additive 10 mM): 142%

SMILES: [Cl][Ni][Cl] [NiCl2]
- Enzyme activity relative value (%) ([1]; additive 1 mM): 62%
- Enzyme activity relative value (%) ([1]; additive 5 mM): 23%
- Enzyme activity relative value (%) ([1]; additive 10 mM): 7%

SMILES: O=S(=O)(F)Cc1ccccc1 [PMSF, phenyl methyl sulfonyl fluoride]
- Enzyme activity relative value (%) ([1]; additive 1 mM): 94%
- Enzyme activity relative value (%) ([1]; additive 5 mM): 107%
- Enzyme activity relative value (%) ([1]; additive 10 mM): 105%

SMILES: [Cl-].[Cl-].[Zn+2] [ZnCl2]
- Enzyme activity relative value (%) ([1]; additive 1 mM): 107%
- Enzyme activity relative value (%) ([1]; additive 5 mM): 9%
- Enzyme activity relative value (%) ([1]; additive 10 mM): 5%
